Experiments:
herpes simplex virus [1] = details: cited from earlier work
herpes simplex virus [2] = assay: Informal trials: topical ivermectin lotion in patients with herpes simplex; format: in vivo, human
Text: The composition of the present invention described above is applied to the affected area of patients having herpes simplex, herpes zoster, or chicken-pox. Preferably, the lotion, cream, gel, or ointment can be applied on the affected area with gentle rubbing to help penetration of the macrocyclic lactone compound into the skin. Moreover, when lotion, cream, or hydrogel is used, preferably the affected area is dampened by water first, then a drop of lotion, cream, or hydrogel is rubbed on the affected area by finger(s). […] Moreover, if blisters are already formed at the affected area, at the time of applying the topical composition the blisters can be broken using a needle, then the composition is rubbed in the lesion.
(§1) The composition can be applied topically to the affected area one or more times a day, typically one to two times a day, when a herpes simplex episode occurs or during the course of shingles or chicken box. When the pain is severe, the composition can be applied more frequently to help alleviate the symptoms. Moreover, the composition can also be integrated into or applied on medical dressing, dermal patch, or lint free wipes, which can be applied to the affected area as needed, to provide a more extended exposure to the medication.
The most impressive results are seen with early recognition and treatment. […] In medicine, a prodrome is an early symptom (or set of symptoms) that might indicate the start of a disease before specific symptoms occur. Prodromes may be non-specific symptoms or, in some instances, may clearly indicate a particular disease. In herpes simplex there is a prodrome consisting of a change in sensation, typically slight numbness or a faint tingling sensation with vague swelling or induration.
(§2) Operating with informed consent of individuals, individuals were treated with the topical composition and the method of the present invention for treating herpes virus infection, more particularly herpes simplex and herpes zoster or shingles, as described in Examples 3 to 8.

[3] = Side effects and tolerability observed in treated patients; format: in vivo, human; details: Example 5: person, high dose
Description: Operating with informed consent of individuals, individuals were treated with the topical composition and the method of the present invention for treating herpes virus infection, more particularly herpes simplex and herpes zoster or shingles, as described in Examples 3 to 8. In the above described informal trials, no adverse side effects or contra-indications were observed among the patients. The patients had no complaints of skin irritation, sensitivity or discomfort originating from the treatment.

varicella zoster virus = assay: Informal trials: topical ivermectin lotion in patients with herpes zoster (shingles); format: in vivo, human
Text: For treating herpes zoster, preferably the surface of the affected area of the skin is gently scratched prior to rubbing the composition containing the macrocyclic lactone compound on the area. Gentle scratching abrades the stratumcorium, which allows better penetration of the macrocyclic lactone compound into the skin. The stratum corneum is the outermost layer of the epidermis, composed of large, polyhedral, plate-like envelopes filled with keratin, which is made up of dead cells that have migrated up from the stratum granulosum. As these dead cells slough off on the surface, they are continuously replaced by new cells from the stratum germinativum. Alternatively, the composition can be dispensed on the affected area, and then scratched into the area. Scratching with cleaned finger nails or a sterilized scraping tool, for example small sharp curette or a needle point, can be used.
as §1
For herpes zoster, at the early onset the patient develops a patch of linear area of paresthesia, and hyperesthesia (burning, stinging, and pain). At this time, the composition containing ivermectin should be topically applied promptly and scratched into the skin. Concurrently, an oral antiviral medication can be used promptly.
as §2

[4] = topical composition, ivermectin concentration as low as 0.075%

Molecule: Nc1nc2c(ncn2CCC(CO)CO)c(=O)[nH]1 [penciclovir]
- Duration of lesions, pain, and viral shedding (herpes simplex virus [1]; cream applied early and late in course of HSV infection (Hamuy et al. 1998)): decreased the duration of lesions, pain, and viral shedding

Molecule: Nc1nc2c(ncn2COCCO)c(=O)[nH]1 [Zovirax®, acyclovir]
- Benefit of prior therapy, orally (herpes simplex virus [2]; Example 3: patient history, oral): with benefit
- Benefit of prior therapy, topically (herpes simplex virus [2]; Example 3: patient history, topical): without benefit

Molecule: O=c1[nH]c(=O)n([C@H]2C[C@H](O)[C@@H](CO)O2)cc1I [idoxuridine]
- Pain duration (herpes simplex virus [1]; topical, reported in a study): reduced pain duration
- Time to loss of crust (herpes simplex virus [1]; topical, reported in a study): decreased time to loss of crust

Molecule: CC(C)[C@H](N)C(=O)OCCOCn1cnc2c(=O)[nH]c(N)nc21 [Valtrex®, valacyclovir]
- Satisfaction with prior therapy (herpes simplex virus [2]; Example 5: person, high dose): without total satisfaction
- Side effects of prior therapy [3]: cardiac irregularities, especially bigeminy and trigeminy

Molecule: ivermectin
- Effectiveness in treating herpes simplex (herpes simplex virus [2]; [4]): effective
- Effectiveness in treating herpes zoster (varicella zoster virus; [4]): effective
- Effect of combined systematic and topical treatments on severity of herpes zoster (varicella zoster virus; topical ivermectin composition with concurrent oral antiviral medication): synergistic effect in decreasing the severity

Molecule: CC(=O)OCC(CCn1cnc2cnc(N)nc21)COC(C)=O [Famvir®, famciclovir]
- Response of severe pain with burning and tingling to prior therapy (varicella zoster virus; Example 6: person, high dose): had not responded

Reference: patent US8901091B2, “Method of treating herpes virus infection using macrocyclic lactone compound” (Galderma S.A., priority 2010, dated 2014)
